Entries after “also recorded” stand apart in the source; their conditions may differ.

The results in this text go back to patent US20030003088A1, “Human pancreatic pluripotential stem cell line” (Board of Trustees operating Michigan State University, priority 2001, published 2003).

The test system of data set [1] is insulin promoter in HPDE6c7 cells. Nature of the data set: Insulin promoter activity, AdINSGFP (GFP under insulin promoter) infected cells. The format is cell-based, human. As to the method: To determine whether the insulin promoter in the HPDE6c7 cells is active, the cells were infected with adenovirus AdINSGFP, a virus vector that expresses the Green Fluorescence Protein (GFP) under the regulation of the insulin promoter.
Nicotinamide is known to affect cell differentiation. Therefore, the effect of nicotinamide on the activity of the insulin promoter in HPDE6c7 cells was determined. The […] cells were plated on plastic cell culture dishes for two days. Then the cells were infected with about 50 pfu/cell AdINSGFP for one hour. Afterwards, the cells were washed and incubated for three days in KBM containing 10 mM nicotinamide.

The subject of data set [2] is HPDE6c7 cells. Put plainly: Induction of insulin production / release into the media. The format is cell-based, human. To be noted: for synthesis and release of insulin / appearance of insulin in the media: preliminary data.
Data set [3] relates to HPDE6c7 cells. Nature of the data set: GJIC competence under c-AMP elevating agents, Lucifer yellow dye transfer. To be noted: in KBM, 48 hours. It counts as cell-based, human. As to the method:
The ability of the HPDE6c7 cells to communicate via gap junctions under various growth conditions was measured using the lucifer yellow dye transfer method as developed by El-Fouly et al. (Exp. Cell Res. 168: 422-430 (1987)). Briefly, near confluent cultures of the cells grown as in Example 1 were subjected to the desired treatment, either growth in KBM or KBM containing c-AMP elevating agents such as forskolin or forskolin and 3-isobutyl-1-methylxanthine (IBMX), both from Sigma Chemical Co., St. Louis, Mo. Then, lucifer yellow was loaded into the cells by making two or three scrape lines in the monolayer with a sharp scalpel. […] Quantifying the extent of communication was done using an image analysis program.

In data set [4] the test system is HPDE6c7 cells. Put plainly: Growth of cells in culture with growth factors. It counts as cell-based, human.
For data set [5], the system named is HPDE6c7 cells. Put plainly: Assay (A): inhibition of forskolin-induced GJIC, Lucifer yellow dye transfer, PAH given at every medium change. To be noted: for GJIC, Average (% change over control at −30 min), −30 min / GJIC, Average (% change over control at −30 min), 0 hr / GJIC, Average (% change over control at −30 min), 24 hr / GJIC, Average (% change over control at −30 min), 48 hr / GJIC, Average (% change over control at −30 min), 72 hr: 70 μM PAH given at every medium change; for GJIC, Average (% change over control at −30 min), −30 min: at time of addition; for GJIC, Average (% change over control at −30 min), 0 hr / GJIC, Average (% change over control at −30 min), 24 hr / GJIC, Average (% change over control at −30 min), 48 hr / GJIC, Average (% change over control at −30 min), 72 hr: forskolin 5 μM; for inhibition of GJIC induced by forskolin: 70 μM, PAH at every medium change. It counts as cell-based, human.

The subject of data set [6] is HPDE6c7 cells. Nature of the data set: Assay (B): inhibition of forskolin-induced GJIC, Lucifer yellow dye transfer, PAH given only at time −30 min. To be noted: for GJIC, Average (% change over control at −30 min), −30 min / GJIC, Average (% change over control at −30 min), 0 hr / GJIC, Average (% change over control at −30 min), 24 hr / GJIC, Average (% change over control at −30 min), 48 hr / GJIC, Average (% change over control at −30 min), 72 hr: 70 μM PAH given at time −30 min only; for GJIC, Average (% change over control at −30 min), −30 min: at time of addition; for GJIC, Average (% change over control at −30 min), 0 hr / GJIC, Average (% change over control at −30 min), 24 hr / GJIC, Average (% change over control at −30 min), 48 hr / GJIC, Average (% change over control at −30 min), 72 hr: forskolin 5 μM.

As to `NC(=O)c1cccnc1` [nicotinamide], in data set [1] (10 mM in KBM, three days), the “activation of the insulin promoter (GFP expressing cells)” value is listed as “induces a substantial number of cells to activate the insulin promoter”. Also, in data set [2], the “induction of insulin production” value was “induce the HPDE6c7 cells to produce insulin”; the “synthesis and release of insulin / appearance of insulin in the media” value is “appear to synthesize and release insulin”.
As for `C=C[C@@]1(C)CC(=O)[C@]2(O)[C@@]3(C)[C@@H](O)CCC(C)(C)[C@@H]3[C@H](O)[C@H](OC(C)=O)[C@@]2(C)O1` [forskolin], the “increase in GJIC relative to complete keratinocyte serum-free medium (KSFM)” value in data set [3] is on record as 2.2 fold.
On to “hepatocyte growth factor: growth factor (mitogen)”, for which, in data set [4], the “growth of the cells” value is on record as “an increase in growth of the cells”. In data set [2], the “synthesis and release of insulin / appearance of insulin in the media” value is “appear to synthesize and release insulin”.
Take sonic hedgehog: the “turning on the promoter for the insulin gene” value in data set [1] is on record as “can turn on the promoter for the insulin gene”. For the same molecule, in data set [2], the “induction of insulin production” value is given as “induce the HPDE6c7 cells to produce insulin”.
On to cholera toxin, for which the “induction of insulin production” value in data set [2] is “induce the HPDE6c7 cells to produce insulin”.
Turning to `Cc1ccc2cc3ccccc3cc2c1` [2-MeA, 2-methylanthracine], in data set [5], the “GJIC, Average (% change over control at −30 min), −30 min” value was found to be 100.00%; the “GJIC, Average (% change over control at −30 min), 0 hr” value is on record as 102.06%; the “GJIC, Average (% change over control at −30 min), 24 hr” value is listed as 197.60%; the “GJIC, Average (% change over control at −30 min), 48 hr” value amounted to 227.15%. In addition, in data set [5], the “GJIC, Average (% change over control at −30 min), 72 hr” value is recorded as 271.19% and the “inhibition of GJIC induced by forskolin” value is recorded as “did not”. For the same molecule, in data set [6], the “GJIC, Average (% change over control at −30 min), −30 min” value is 100.00%; the “GJIC, Average (% change over control at −30 min), 0 hr” value is recorded as 89.95%; the “GJIC, Average (% change over control at −30 min), 24 hr” value was 265.70%; the “GJIC, Average (% change over control at −30 min), 48 hr” value turned out to be 260.89%. The “GJIC, Average (% change over control at −30 min), 72 hr” value in data set [6] amounted to 260.89%.
`Cc1cccc2cc3ccccc3cc12` [1-MeA, 1-methylanthracine]: in data set [5], the “GJIC, Average (% change over control at −30 min), −30 min” value amounted to 100.00%; the “GJIC, Average (% change over control at −30 min), 0 hr” value worked out at 89.37%; the “GJIC, Average (% change over control at −30 min), 24 hr” value is 92.24%; the “GJIC, Average (% change over control at −30 min), 48 hr” value was found to be 81.77%. Moreover, in data set [5], the “GJIC, Average (% change over control at −30 min), 72 hr” value was 212.39% and the “inhibition of GJIC induced by forskolin” value is “inhibited GJIC that had been induced by forskolin”. Also, in data set [6], the “GJIC, Average (% change over control at −30 min), −30 min” value is 100.00%; the “GJIC, Average (% change over control at −30 min), 0 hr” value was 77.04%; the “GJIC, Average (% change over control at −30 min), 24 hr” value is on record as 233.32%; the “GJIC, Average (% change over control at −30 min), 48 hr” value was 246.93%. Also, the “GJIC, Average (% change over control at −30 min), 72 hr” value in data set [6] was found to be 261.32%. In data set [6] (70 μM, PAH at −30 min only), the “lethal effects on the cells / cytotoxicity” value is on record as “no lethal effects; also recorded: not cytotoxic” and the “reversibility of the inhibition of GJIC” value is on record as “reversible”.

B1: beta-cellulin: growth factor (mitogen) (protein, UniProt P35070 32-111, looked up)
Betacellulin: DGNSTRSPETNGLLCGDPEENCAATTTQSKRKGHFSRCPKQYKHYCIKGRCRFVVAEQTPSCVCDEGYIGARCERVDLFY
With B1, the “growth of the cells” value in data set [4] is given as “an increase in growth of the cells”.
